Measured values: ChEMBL document CHEMBL5291721, “A preclinical secondary pharmacology resource illuminates target-adverse drug reaction associations of marketed drugs” (Nat Commun, 2023)

Tests used:
Thromboxane A2 receptor [1] = biological target: T1, Thromboxane A2 receptor (Homo sapiens, UniProt P21731); assay type: functional, cell-based
T1 sequence (P21731 whole entry): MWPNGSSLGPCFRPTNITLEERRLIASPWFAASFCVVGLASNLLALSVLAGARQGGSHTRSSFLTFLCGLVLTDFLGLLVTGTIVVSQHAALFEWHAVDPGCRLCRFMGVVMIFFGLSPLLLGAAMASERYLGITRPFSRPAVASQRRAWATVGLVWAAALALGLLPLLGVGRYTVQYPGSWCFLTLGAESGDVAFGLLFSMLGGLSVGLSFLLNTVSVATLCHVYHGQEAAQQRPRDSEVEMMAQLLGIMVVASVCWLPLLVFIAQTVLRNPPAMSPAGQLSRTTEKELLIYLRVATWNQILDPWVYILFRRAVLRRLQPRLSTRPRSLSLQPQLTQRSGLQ

[2] = biological target: T2, Alpha-1A adrenergic receptor (Homo sapiens, UniProt P35348); assay type: functional, cell-based
T2 sequence (P35348 whole entry): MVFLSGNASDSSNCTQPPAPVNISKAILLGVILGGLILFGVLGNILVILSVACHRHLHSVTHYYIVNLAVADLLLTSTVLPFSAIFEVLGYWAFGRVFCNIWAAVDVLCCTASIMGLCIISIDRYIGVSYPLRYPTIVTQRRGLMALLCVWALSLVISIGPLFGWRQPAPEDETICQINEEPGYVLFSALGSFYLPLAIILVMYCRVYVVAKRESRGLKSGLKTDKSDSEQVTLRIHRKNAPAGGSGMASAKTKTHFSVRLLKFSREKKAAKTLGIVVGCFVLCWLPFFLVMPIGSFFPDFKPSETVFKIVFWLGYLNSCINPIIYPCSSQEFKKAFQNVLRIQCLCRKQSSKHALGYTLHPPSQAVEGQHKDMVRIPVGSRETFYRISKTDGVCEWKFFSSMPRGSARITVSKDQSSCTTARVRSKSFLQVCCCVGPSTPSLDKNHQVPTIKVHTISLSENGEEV

Thromboxane A2 receptor [3] = biological target: T1, Thromboxane A2 receptor; assay type: functional, cell-based; remark: listed apart in the source
Prothrombin = Prothrombin (Homo sapiens, UniProt P00734); assay type: functional
[4] = biological target: Prostaglandin G/H synthase 1 (Homo sapiens, UniProt P23219); assay type: functional
[5] = biological target: T3, Muscarinic acetylcholine receptor M1 (Homo sapiens, UniProt P11229); assay type: functional, cell-based
T3 sequence (P11229 whole entry): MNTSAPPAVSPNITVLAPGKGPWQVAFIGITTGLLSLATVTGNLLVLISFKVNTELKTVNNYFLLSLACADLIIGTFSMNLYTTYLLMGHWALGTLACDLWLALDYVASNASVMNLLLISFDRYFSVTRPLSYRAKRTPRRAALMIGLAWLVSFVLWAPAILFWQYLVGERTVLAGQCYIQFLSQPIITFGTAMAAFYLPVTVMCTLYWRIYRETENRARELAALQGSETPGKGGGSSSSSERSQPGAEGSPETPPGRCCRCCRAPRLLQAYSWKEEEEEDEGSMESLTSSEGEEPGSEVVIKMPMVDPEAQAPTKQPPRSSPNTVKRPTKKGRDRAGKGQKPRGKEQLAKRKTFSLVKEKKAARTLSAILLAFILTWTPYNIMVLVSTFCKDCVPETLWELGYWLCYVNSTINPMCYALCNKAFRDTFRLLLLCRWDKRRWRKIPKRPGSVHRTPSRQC

[6] = biological target: T4, Muscarinic acetylcholine receptor M2 (Homo sapiens, UniProt P08172)
T4 sequence (P08172 whole entry): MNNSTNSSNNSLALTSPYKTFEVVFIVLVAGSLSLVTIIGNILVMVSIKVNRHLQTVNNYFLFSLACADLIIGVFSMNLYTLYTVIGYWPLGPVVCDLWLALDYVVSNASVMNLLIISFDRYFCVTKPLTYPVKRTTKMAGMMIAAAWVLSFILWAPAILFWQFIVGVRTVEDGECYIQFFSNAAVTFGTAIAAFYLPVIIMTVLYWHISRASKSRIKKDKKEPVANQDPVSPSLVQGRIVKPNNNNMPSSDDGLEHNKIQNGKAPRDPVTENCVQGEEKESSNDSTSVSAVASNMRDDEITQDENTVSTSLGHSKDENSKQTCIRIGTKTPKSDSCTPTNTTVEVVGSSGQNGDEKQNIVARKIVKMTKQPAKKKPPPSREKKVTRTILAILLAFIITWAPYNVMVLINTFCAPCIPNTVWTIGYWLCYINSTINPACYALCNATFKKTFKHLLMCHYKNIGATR

[7] = biological target: T2, Alpha-1A adrenergic receptor; assay type: functional, cell-based; remark: listed apart in the source
Histamine H2 receptor = Histamine H2 receptor (Homo sapiens, UniProt P25021); assay type: functional, cell-based
Histamine H3 receptor = Histamine H3 receptor (Homo sapiens, UniProt Q9Y5N1)
Thromboxane A2 receptor [8] = biological target: T1, Thromboxane A2 receptor
[9] = biological target: T2, Alpha-1A adrenergic receptor; assay type: functional, cell-based; remark: listed apart in the source
[10] = biological target: T5, Gastrin/cholecystokinin type B receptor (Homo sapiens, UniProt P32239)
T5 sequence (P32239 whole entry): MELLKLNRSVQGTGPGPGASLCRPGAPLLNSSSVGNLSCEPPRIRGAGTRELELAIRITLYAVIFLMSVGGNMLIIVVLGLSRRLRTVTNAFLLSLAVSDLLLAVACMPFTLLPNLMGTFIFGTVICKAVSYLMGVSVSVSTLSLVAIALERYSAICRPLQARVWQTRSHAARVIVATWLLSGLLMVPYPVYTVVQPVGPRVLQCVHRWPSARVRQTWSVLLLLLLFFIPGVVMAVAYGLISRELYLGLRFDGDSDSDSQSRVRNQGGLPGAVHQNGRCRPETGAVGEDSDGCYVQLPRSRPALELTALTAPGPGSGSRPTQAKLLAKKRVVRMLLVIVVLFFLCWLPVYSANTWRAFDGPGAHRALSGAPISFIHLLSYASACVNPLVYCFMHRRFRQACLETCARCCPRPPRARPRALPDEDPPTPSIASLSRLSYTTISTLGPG

[11] = biological target: Voltage-dependent L-type calcium channel subunit alpha-1C (Rattus norvegicus, UniProt P22002); assay type: functional
Further: assay procedure not described here.

Chain of Prostaglandin G/H synthase 1 (P23219 whole entry): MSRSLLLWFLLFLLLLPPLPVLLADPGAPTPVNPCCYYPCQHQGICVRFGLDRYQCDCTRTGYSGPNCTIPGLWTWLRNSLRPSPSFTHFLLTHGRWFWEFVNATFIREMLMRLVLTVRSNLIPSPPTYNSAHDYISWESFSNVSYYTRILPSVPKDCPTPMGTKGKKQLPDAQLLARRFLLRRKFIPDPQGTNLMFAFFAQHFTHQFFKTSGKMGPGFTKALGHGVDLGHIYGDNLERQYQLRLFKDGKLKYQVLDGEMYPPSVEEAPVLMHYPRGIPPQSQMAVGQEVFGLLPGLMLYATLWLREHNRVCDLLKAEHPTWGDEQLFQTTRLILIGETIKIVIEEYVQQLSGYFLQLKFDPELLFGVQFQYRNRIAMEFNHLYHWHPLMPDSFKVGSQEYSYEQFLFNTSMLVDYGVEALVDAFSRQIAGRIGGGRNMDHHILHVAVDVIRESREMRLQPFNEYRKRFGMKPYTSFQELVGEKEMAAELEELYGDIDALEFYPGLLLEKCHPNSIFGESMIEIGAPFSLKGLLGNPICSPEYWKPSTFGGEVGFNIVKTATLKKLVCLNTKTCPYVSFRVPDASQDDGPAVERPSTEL
Chain of Histamine H3 receptor (Q9Y5N1 whole entry): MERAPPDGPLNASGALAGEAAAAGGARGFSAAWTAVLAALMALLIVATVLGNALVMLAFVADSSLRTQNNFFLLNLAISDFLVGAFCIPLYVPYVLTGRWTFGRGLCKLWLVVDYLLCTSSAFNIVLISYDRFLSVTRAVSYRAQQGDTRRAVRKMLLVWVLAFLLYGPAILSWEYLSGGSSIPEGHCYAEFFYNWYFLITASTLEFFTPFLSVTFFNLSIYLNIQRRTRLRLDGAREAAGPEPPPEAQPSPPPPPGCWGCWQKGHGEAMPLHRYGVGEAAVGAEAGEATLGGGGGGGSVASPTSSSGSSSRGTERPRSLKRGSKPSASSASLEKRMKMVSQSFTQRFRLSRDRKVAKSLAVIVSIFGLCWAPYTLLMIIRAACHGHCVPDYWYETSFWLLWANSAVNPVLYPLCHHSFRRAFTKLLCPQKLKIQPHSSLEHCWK
Chain of Voltage-dependent L-type calcium channel subunit alpha-1C (P22002 whole entry): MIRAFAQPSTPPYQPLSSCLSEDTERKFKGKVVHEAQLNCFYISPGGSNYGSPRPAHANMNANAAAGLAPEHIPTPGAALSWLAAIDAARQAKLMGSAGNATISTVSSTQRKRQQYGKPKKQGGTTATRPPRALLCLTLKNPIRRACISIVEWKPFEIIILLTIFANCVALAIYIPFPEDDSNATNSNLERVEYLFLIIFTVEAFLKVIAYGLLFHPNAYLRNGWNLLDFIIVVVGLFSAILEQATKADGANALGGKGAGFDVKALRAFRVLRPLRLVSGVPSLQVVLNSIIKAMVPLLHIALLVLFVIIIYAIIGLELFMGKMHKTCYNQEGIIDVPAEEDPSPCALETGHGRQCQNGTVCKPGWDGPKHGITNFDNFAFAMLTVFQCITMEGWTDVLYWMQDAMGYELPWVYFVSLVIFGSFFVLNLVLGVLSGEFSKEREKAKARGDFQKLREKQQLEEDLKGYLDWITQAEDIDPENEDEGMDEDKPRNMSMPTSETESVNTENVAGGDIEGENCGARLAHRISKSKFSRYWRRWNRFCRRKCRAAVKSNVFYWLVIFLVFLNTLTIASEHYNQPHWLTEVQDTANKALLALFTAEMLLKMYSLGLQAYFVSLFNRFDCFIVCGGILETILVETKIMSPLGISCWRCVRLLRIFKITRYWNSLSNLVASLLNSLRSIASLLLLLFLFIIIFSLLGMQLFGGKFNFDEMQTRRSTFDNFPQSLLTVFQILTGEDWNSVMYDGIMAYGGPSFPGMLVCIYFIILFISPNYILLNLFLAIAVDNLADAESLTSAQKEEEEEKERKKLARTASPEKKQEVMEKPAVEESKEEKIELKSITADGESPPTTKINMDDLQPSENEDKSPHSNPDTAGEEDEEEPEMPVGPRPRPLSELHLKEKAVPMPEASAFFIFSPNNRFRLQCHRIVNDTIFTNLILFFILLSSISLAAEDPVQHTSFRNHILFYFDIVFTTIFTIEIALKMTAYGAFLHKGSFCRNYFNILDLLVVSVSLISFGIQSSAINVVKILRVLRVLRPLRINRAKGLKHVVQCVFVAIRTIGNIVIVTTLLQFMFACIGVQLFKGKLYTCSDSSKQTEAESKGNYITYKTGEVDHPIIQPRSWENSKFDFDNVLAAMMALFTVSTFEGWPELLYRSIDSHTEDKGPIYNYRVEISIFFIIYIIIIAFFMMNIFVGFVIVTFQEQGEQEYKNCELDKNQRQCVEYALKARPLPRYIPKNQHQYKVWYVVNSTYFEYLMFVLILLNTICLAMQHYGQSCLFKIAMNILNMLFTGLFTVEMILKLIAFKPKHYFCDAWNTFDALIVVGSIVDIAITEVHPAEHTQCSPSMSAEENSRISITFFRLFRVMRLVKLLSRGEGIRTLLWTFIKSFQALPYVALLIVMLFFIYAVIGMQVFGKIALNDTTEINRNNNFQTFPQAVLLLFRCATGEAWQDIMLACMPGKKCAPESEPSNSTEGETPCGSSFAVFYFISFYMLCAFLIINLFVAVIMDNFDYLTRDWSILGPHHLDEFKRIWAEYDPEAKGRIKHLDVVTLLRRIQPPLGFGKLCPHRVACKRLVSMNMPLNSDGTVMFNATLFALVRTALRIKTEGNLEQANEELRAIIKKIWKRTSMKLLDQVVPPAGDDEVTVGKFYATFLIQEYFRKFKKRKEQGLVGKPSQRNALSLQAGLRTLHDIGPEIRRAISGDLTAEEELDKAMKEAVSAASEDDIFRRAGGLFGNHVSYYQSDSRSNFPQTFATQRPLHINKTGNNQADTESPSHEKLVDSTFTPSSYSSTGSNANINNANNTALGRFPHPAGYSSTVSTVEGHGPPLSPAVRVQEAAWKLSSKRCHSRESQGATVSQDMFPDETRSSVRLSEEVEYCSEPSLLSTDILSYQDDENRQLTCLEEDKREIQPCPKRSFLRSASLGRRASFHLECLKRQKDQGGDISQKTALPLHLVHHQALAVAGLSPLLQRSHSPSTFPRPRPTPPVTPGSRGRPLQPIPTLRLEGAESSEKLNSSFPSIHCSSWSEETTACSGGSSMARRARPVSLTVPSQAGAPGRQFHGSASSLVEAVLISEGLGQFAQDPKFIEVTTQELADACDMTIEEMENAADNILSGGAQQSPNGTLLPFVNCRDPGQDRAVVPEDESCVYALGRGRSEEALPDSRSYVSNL
Chain of Histamine H2 receptor (P25021 whole entry): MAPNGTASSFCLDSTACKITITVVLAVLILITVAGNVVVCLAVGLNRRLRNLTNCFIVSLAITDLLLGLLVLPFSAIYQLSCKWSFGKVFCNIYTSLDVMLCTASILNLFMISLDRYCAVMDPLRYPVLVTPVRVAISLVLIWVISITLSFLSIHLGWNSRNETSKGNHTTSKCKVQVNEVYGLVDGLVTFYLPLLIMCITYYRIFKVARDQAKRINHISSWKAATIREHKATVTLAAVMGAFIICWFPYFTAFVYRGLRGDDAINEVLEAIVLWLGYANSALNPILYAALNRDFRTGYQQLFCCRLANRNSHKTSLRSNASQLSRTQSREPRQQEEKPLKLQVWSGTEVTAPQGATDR

SMILES | AC50 (Thromboxane A2 receptor [1]) [µM] | AC50 [2] [µM] | AC50 (Thromboxane A2 receptor [3]) [µM] | AC50 (Prothrombin) [µM] | AC50 [4] [µM] | AC50 [5] [µM] | AC50 [6] [µM] | AC50 [7] [µM] | AC50 (Histamine H2 receptor) [µM] | AC50 (Histamine H3 receptor) [µM] | AC50 (Thromboxane A2 receptor [8]) [µM] | AC50 [9] [µM] | AC50 [10] [µM] | AC50 [11] [µM]
Oc1c(Cl)cc(Cl)c2cccnc12 [CHLOROXINE] | > 30 | > 30 | > 30 | > 30 | > 0.3 | > 30 | > 30 |  |  |  |  |  |  | 
CN(C)S(=O)(=O)c1ccc2c(c1)N(CCCN1CCC(CCO)CC1)c1ccccc1S2 [PIPOTIAZINE] | 15.7 | > 30 | > 30 | > 30 | > 30 | 7.84 | 1.72 |  |  |  |  |  |  | 
CCC(=O)NCC[C@@H]1CCc2ccc3c(c21)CCO3 [RAMELTEON] | > 30 | > 30 | > 30 | > 30 | > 30 | > 30 | > 30 |  |  |  |  |  |  | 
CN(C)CCn1nnnc1SCC1=C(C(=O)O)N2C(=O)[C@@H](NC(=O)Cc3csc(N)n3)[C@H]2SC1 [CEFOTIAM] | > 30 | > 30 | > 30 | > 30 | > 30 | > 30 | > 30 |  |  |  |  |  |  | 
Cc1cc(C#N)cc(C)c1Oc1nc(Nc2ccc(C#N)cc2)nc(N)c1Br [ETRAVIRINE] | > 3 | > 10 | > 10 | > 30 | 20.4 | 2.71 | 22.6 |  |  |  |  |  |  | 
CCOC(=O)[C@H](CCc1ccccc1)N[C@@H](C)C(=O)N1[C@H](C(=O)O)C[C@H]2CCCC[C@@H]21 [TRANDOLAPRIL] | > 30 | > 30 | > 30 | > 30 | > 30 | > 30 | > 30 |  |  |  |  |  |  | 
N[C@H](C(=O)O)[C@H](O)c1ccc(O)c(O)c1 [DROXIDOPA] | > 30 | 10.4 | > 30 | > 30 | > 30 | > 30 | > 30 |  |  |  |  |  |  | 
COC(c1ccccc1)(c1ccccc1)[C@H](Oc1nc(C)cc(C)n1)C(=O)O [AMBRISENTAN] | > 30 | > 30 | > 30 | > 30 | > 30 | > 30 | > 30 |  |  |  |  |  |  | 
CN(C)CCN1C(=O)c2ccccc2N(C)c2ccccc21 [DIBENZEPIN] | > 30 | 22.5 | > 30 | > 30 | > 30 | > 30 | 2.62 |  |  |  |  |  |  | 
CC(=O)N[C@@H]1[C@@H](O)[C@H](O)[C@@H](CO)O[C@H]1O [N-ACETYLGLUCOSAMINE] | > 30 | > 30 | > 30 | > 30 | > 30 | > 30 | > 30 |  |  |  |  |  |  | 
CN(C)CC(c1ccc(O)cc1)C1(O)CCCCC1 (stereo not drawn) [DESVENLAFAXINE] | > 30 | > 30 | > 30 | > 30 | > 30 | > 30 | > 30 |  |  |  |  |  |  | 
CC(C)(C)NC[C@H](O)COc1ccccc1C1CCCC1 [PENBUTOLOL] | 16.1 | > 30 | > 30 | > 30 | 21.1 | 13.5 | > 30 |  |  |  |  |  |  | 
CC[N+]1(C)[C@@H]2CC(OC(=O)[C@H](CO)c3ccccc3)C[C@H]1[C@@H]1O[C@@H]12 (stereo partly drawn) [OXITROPIUM] | > 30 | > 30 | > 30 | > 30 | > 30 | 0.003 | 0.003 |  |  |  |  |  |  | 
CN(C)[C@@H](c1cccc(O)c1)[C@H]1CCCC[C@H]1O [CIRAMADOL] | > 30 | > 30 | > 30 | > 30 | > 30 | > 30 | > 30 |  |  |  |  |  |  | 
Cc1cn([C@H]2C[C@H](N=[N+]=[N-])[C@@H](CO)O2)c(=O)[nH]c1=O [ZIDOVUDINE] | > 30 | > 30 | > 30 | > 30 | > 30 |  | > 30 | > 30 | > 10 | > 10 | > 30 | > 30 | > 30 | > 10
CC(C)Nc1ncccn1 [ISAXONINE] | > 30 | > 30 | > 30 | > 30 | > 30 | > 30 | > 30 |  |  |  |  |  |  | 
CC[C@H]1OC(=O)[C@H](C)[C@@H](O[C@H]2C[C@@](C)(OC)[C@@H](O)[C@H](C)O2)[C@H](C)[C@@H](O[C@@H]2O[C@H](C)C[C@H](N(C)C)[C@H]2O)[C@](C)(O)C[C@@H](C)CN(C)[C@H](C)[C@@H](O)[C@]1(C)O [AZITHROMYCIN] | > 30 | > 30 | > 30 | > 30 | > 30 |  | > 30 | > 30 | > 10 | > 10 | > 30 | > 30 | > 30 | > 10
O=C(O)c1cc(O)ccc1O [GENTISIC ACID] | > 30 | > 30 | > 30 | > 30 | > 30 | > 30 | > 30 |  |  |  |  |  |  | 
C=C[C@H]1C[N@@]2CC[C@H]1C[C@H]2[C@H](O)c1ccnc2ccc(OC)cc12 [QUININE] | > 30 |  | > 30 | > 30 | > 10 | > 30 | > 30 |  |  |  |  |  |  | 
OCCN1C[C@H](O)[C@@H](O)[C@H](O)[C@H]1CO [MIGLITOL] | > 30 | > 30 | > 30 | > 30 | > 30 | > 30 | > 30 |  |  |  |  |  |  | 
O=C(CCNNC(=O)c1ccncc1)NCc1ccccc1 [NIALAMIDE] | > 30 | > 30 | > 30 | > 30 | 8.28 | > 30 | > 30 |  |  |  |  |  |  | 
